Experimental findings from article PMC4669708 (Cell Death & Disease, 2015) are described below.

Structures are written as SMILES.

Assay [1] in a line: Chemical proteomics, c-ponatinib drug pull-down, LCMS-MS. Format: binding, human. To be noted: c-ponatinib matrix, competition with free ponatinib; cells 2 h TNF-α. Here is the method:
Drug-affinity matrices were prepared as described previously.[51] In brief, 25 nmol of c-ponatinib were immobilized on 50 μl NHS-activated Sepharose 4 Fast Flow beads (GE Healthcare Bio-Sciences AB, Uppsala, Sweden). 10 mg whole cell lysate was used as protein input per replicate. Affinity chromatography and elution were performed in duplicate. After elution, the enriched proteins were reduced with dithiothreitol (DTT) and cysteine residues were alkylated by incubation with iodoacetamide. The samples were digested with modified porcine trypsin (Promega). Five percent of the digested eluates were purified and concentrated by C18 reversed-phase material. Subsequently, samples were analyzed in duplicates by gel-free one-dimensional LCMS.
Precursor and MS/MS peaks were extracted from the RAW files and saved in the MGF format using msconvert tool (ProteoWizard Library v2.1.2708, www.proteowizard.sourceforge.net) for subsequent protein identification. […] The initial peptide identifications were used to deduce independent linear transformations for precursor and fragment masses that would minimize the mean square deviation of measured masses from theoretical. […] A false discovery rate of <1% for protein identifications and <0.1% for peptides (including the ones exported with lower scores) was determined by applying the same procedure against a database of reversed protein sequences. […]

The target in the next assay is RIPK3 to MLKL binding (Homo sapiens, UniProt Q9Y572). To be noted: HT-29 HA-MLKL cells, doxycycline overnight; 0.5 μM ponatinib, 5 μM pazopanib.
A further assay concerns the target RIPK3 (Homo sapiens, UniProt Q9Y572). Kind of assay: Recombinant kinase assay. It counts as biochemical. Also noted: purchased Signalchem R09-10G. The method, then: Recombinant RIPK1 or RIPK3 protein was incubated with the substrate MBP in kinase assay buffer (40 mM Tris-HCl pH 7.5, 10 mM MgCl2 and 1 mM DTT) in presence of 50 μM ATP, 5 μCi [γ-32 P]ATP and the indicated inhibitors in a total volume of 20 μl. […] The terminated reactions were spotted onto a SAM2 Biotin Capture membrane (Promega) and further processed according to the manufacturer's instructions. […] Data were normalized to a DMSO-treated control sample. For autoradiography, the reactions were stopped by addition of 5 μl 4x Laemmli buffer and incubated for 5 min at 95 °C.

Another assay deals with T1, RIPK1 (Homo sapiens, UniProt Q13546).
T1 sequence (Q13546 1-671): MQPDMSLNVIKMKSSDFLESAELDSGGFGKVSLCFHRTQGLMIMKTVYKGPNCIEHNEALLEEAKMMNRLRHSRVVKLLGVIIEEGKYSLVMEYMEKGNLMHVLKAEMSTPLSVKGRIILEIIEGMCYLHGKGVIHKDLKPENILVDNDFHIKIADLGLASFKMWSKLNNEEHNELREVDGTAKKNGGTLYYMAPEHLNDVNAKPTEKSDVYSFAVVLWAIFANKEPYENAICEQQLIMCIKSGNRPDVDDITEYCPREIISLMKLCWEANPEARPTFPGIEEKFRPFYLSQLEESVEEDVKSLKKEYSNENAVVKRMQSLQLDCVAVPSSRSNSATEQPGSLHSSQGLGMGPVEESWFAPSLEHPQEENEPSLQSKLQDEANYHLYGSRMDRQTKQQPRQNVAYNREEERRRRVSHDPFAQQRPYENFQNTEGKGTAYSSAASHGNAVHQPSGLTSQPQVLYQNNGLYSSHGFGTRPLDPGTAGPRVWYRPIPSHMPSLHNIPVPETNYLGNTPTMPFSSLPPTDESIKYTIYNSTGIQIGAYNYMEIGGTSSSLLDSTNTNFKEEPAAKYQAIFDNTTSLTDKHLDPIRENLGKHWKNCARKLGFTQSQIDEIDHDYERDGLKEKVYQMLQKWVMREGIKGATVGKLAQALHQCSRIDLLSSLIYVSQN
Kind of assay: c-ponatinib pulldown LC-MS/MS. It counts as binding. The gist of the method:
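Read-out: interaction P-value combining Mascot scores, Phenyx scores and spectral counts (Fisher's method), plus fold reduction of median spectral counts on free-compound competition. Proteins were enriched from 10 mg cell lysate on c-ponatinib beads, then trypsin-digested for LC-MS/MS.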

RIPK3, sequence (Q9Y572 whole entry): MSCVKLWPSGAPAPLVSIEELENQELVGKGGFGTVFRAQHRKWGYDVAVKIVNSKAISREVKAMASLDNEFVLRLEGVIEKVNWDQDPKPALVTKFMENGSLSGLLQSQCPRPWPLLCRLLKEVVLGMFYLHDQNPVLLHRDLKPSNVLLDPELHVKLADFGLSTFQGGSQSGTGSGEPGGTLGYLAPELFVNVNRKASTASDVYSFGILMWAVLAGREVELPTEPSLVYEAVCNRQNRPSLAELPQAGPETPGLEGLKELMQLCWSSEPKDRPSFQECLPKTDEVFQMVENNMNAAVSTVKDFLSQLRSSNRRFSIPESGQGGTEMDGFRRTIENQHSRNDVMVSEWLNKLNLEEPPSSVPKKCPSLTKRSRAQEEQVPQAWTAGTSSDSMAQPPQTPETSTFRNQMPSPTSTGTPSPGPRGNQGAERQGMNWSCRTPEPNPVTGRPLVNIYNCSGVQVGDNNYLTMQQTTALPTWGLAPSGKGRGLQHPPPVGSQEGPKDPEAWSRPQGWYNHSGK
RIPK3 to MLKL binding, sequence (Q9Y572 whole entry): as above

On to `Cc1ccc(C(=O)Nc2ccc(CN3CCN(C)CC3)c(C(F)(F)F)c2)cc1C#Cc1cnc2cccnn12` [ponatinib, Ponatinib], for which, in assay [1], the “kinases identified as specific binders (number)” value is listed as 38 and the “non-kinase proteins identified as specific binders (number)” value was 22. For the same compound, the “binding of RIPK3 to MLKL” value on RIPK3 to MLKL binding is reported as “efficiently blocked binding of RIPK3 to MLKL”. Besides, the “RIPK3 kinase activity (MBP phosphorylation)” value at RIPK3 (50 μM ATP, Figure 4e inhibitors at 10 μM) is listed as “strongly blocked phosphorylation”. The RIPK3 autophosphorylation entry on RIPK3 (autoradiography, Supplementary Figure 4c) is recorded as “efficiently blocked”.

For `Cc1ccc(C(=O)Nc2ccc(CN3CCN(CCCN)CC3)c(C(F)(F)F)c2)cc1C#Cc1cnc2cccnn12` [c-ponatinib], at RIPK1 (+ free ponatinib), the “Av. SC comp.” value stood at 0 and the “Total SC comp.” value amounted to 0. Also, at RIPK1 (no competitor), the “Av. SC” value worked out at 1.5 and the “Total SC” value is given as 6.
